From patent publication US7491723B2, “Alkanol and cycloalkanol-amine derivatives and methods of their use” (Wyeth, priority 2003, dated 2009) come the findings set out here.

Structures can show the parent of a compound that is named as a salt.

For the experiment, the target named is T1, human hNET (Homo sapiens, UniProt P23975).
T1 construct: expressed in transfected cells
Nature of the experiment: Norepinephrine (NE) uptake assay in MDCK-Net6 cells. In kind it is cell-based. The conditions noted are these: 1 μM test compound, [3H]NE uptake. The protocol:
MDCK-Net6 cells, stably transfected with human hNET (Pacholczyk, T., R. D. Blakely, and S. G. Amara, Nature, 1991, 350(6316): p. 350-4) were cultured in growth medium containing high glucose DMEM (Gibco, Cat. No. 11995), 10% FBS (dialyzed, heat-inactivated, US Bio-Technologies, Lot FBD1129HI) and 500 μg/ml G418 (Gibco, Cat. No. 10131). Cells were plated at 300,000/T75 flask and cells were split twice weekly. The JAR cell line (human placental choriocarcinoma) was purchased from ATCC (Cat. No. HTB-144). The cells were cultured in growth medium containing RPMI 1640 (Gibco, Cat. No. 72400), 10% FBS (Irvine, Cat. No. 3000), 1% sodium pyruvate (Gibco, Cat. No. 1136) and 0.25% glucose. Cells were plated at 250,000 cells/T75 flask and split twice weekly. For all assays, cells were plated in Wallac 96-well sterile plates (PerkinElmer, Cat. No. 3983498).
On day 1, cells were plated at 3,000 cells/well in growth medium and maintained in a cell incubator (37° C., 5% CO2). On day 2, growth medium was replaced with 200 μl of assay buffer (25 mM HEPES; 120 mM NaCl; 5 mM KCl; 2.5 mM CaCl2; 1.2 mM MgSO4; 2 mg/ml glucose (pH 7.4, 37° C.)) containing 0.2 mg/ml ascorbic acid and 10 μM pargyline. Plates containing cells with 200 μl of assay buffer were equilibrated for 10 minutes at 37° C. prior to addition of compounds. A stock solution of desipramine was prepared in DMSO (10 mM) and delivered to triplicate wells containing cells for a final test concentration of 1 μM. Data from these wells were used to define non-specific NE uptake (minimum NE uptake). Test compounds were prepared in DMSO (10 mM) and diluted in assay buffer according to test range (1 to 10,000 nM). Twenty-five microliters of assay buffer (maximum NE uptake) or test compound were added directly to triplicate wells containing cells in 200 μl of assay buffer. The cells in assay buffer with test compounds were incubated for 20 minutes at 37° C. To initiate the NE uptake, [^3H]NE diluted in assay buffer (120 nM final assay concentration) was delivered in 25 μl aliquots to each well and the plates were incubated for 5 minutes (37° C.). The reaction was terminated by decanting the supernatant from the plate. The plates containing cells were washed twice with 200 μl assay buffer (37° C.) to remove free radioligand. The plates were then inverted, left to dry for 2 minutes, then reinverted and air-dried for an additional 10 minutes. The cells were lysed in 25 μl of 0.25 N NaOH solution (4° C.), placed on a shake table and vigorously shaken for 5 minutes. After cell lysis, 75 μl of scintillation cocktail was added to each well and the plates were sealed with film tape. The plates were returned to the shake table and vigorously shaken for a minimum of 10 minutes to ensure adequate partitioning of organic and aqueous solutions. The plates were counted in a Wallac Microbeta counter (PerkinElmer) to collect the raw cpm data.
For each experiment, a data stream of cpm values collected from the Wallac Microbeta counter was downloaded to a Microsoft Excel statistical application program. Calculations of EC50 values were made using the transformed-both-sides logistic dose response program written by Wyeth Biometrics Department. The statistical program uses mean cpm values from wells representing maximum binding or uptake (assay buffer) and mean cpm values from wells representing minimum binding or uptake ((1 μM desipramine (hNET) or 1 μM paroxetine (hSERT)). Estimation of the EC50 value was completed on a log scale and the line was fit between the maximum and minimum binding or uptake values. All graphic data representation was generated by normalizing each data point to a mean percent based on the maximum and minimum binding or uptake values. The EC50 values reported from multiple experiments were calculated by pooling the raw data from each experiment and analyzing the pooled data as one experiment.

T1 sequence (P23975 whole entry): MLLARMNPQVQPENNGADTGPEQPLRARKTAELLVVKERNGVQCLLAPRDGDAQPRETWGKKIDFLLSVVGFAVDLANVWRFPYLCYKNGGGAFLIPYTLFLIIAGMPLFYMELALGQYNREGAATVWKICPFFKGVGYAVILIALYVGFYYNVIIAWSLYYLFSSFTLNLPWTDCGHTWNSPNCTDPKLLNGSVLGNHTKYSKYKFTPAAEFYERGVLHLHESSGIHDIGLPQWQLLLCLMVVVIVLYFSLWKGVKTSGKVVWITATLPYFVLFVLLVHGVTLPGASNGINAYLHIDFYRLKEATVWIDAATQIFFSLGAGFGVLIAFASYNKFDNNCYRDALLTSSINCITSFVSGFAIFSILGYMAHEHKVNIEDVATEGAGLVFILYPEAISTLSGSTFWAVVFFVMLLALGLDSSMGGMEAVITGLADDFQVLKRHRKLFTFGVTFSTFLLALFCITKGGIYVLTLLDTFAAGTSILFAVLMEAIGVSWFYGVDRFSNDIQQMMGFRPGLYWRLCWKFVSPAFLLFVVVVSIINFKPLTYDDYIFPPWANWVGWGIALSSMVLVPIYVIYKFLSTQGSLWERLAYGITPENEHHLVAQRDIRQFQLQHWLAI

What is called inhibition is the share of the control response that was lost under treatment. A lower inhibition goes with a weak effect. Take `CN1CCC(O)(C(CN2CCNCC2)c2ccc(Cl)c(Cl)c2)CC1` (centres unmarked) [Example 37, 4-[1-(3,4-dichlorophenyl)-2-piperazin-1-ylethyl]-1-methylpiperidin-4-ol trihydrochloride]: the inhibition at 1 µM is 57%. For `CCC(O)(CC)C(CN1CCNCC1)c1cccc(Br)c1` (centres unmarked) [Example 50, 2-(3-bromophenyl)-3-ethyl-1-piperazin-1-ylpentan-3-ol dihydrochloride], the inhibition at 1 µM was 89%. Under `CCCC(O)(CCC)C(CN1CCNCC1)c1cccc(Cl)c1` (centres unmarked) [Example 51, 4-[1-(3-chlorophenyl)-2-piperazin-1-ylethyl]heptan-4-ol dihydrochloride] stands 44%. Under `CCC(O)(CC)C(CN1CCNCC1)c1cccc(Cl)c1` (centres unmarked) [Example 52, 2-(3-chlorophenyl)-3-ethyl-1-piperazin-1-ylpentan-3-ol dihydrochloride] stands 37%. Under `CN1CCC(O)(C(CN2CCNCC2)c2cccc(Br)c2)CC1` (centres unmarked) [Example 58, 4-[1-(3-bromophenyl)-2-piperazin-1-ylethyl]-1-methylpiperidin-4-ol dihydrochloride] stands 35%; under `CCC(O)(CC)C(CN1CCNCC1)c1ccc(OC)c(Br)c1` (centres unmarked) [Example 65, 2-(3-bromo-4-methoxyphenyl)-3-ethyl-1-piperazin-1-ylpentan-3-ol dihydrochloride], 12%; under `CCC(O)(CC)C(CN1CCN(C)CC1)c1ccc(OC)c(Br)c1` (centres unmarked) [Example 66, 2-(3-bromo-4-methoxyphenyl)-3-ethyl-1-(4-methylpiperazin-1-yl)pentan-3-ol dihydrochloride], 26%. As to `OC1(C(CN2CCNCC2)c2cccc(Cl)c2)CCCC2CCCCC21` (centres unmarked) [Example 72, 1-[1-(3-chlorophenyl)-2-piperazin-1-ylethyl]decahydronaphthalen-1-ol dihydrochloride], the inhibition at 1 µM came out at 25%. Under `COc1ccc(C(CN2CCN(C)CC2)C2(O)CCC(C(C)(C)C)CC2)cc1Br` (centres unmarked) [Example 73, 1-[1-(3-bromo-4-methoxyphenyl)-2-(4-methylpiperazin-1-yl)ethyl]-4-tert-butylcyclohexano dihydrochloride] stands 25%.

The compound `OC1(C(CN2CCNCC2)c2cccc(Cl)c2)CCC2CCCCC2C1` (centres unmarked) [Example 74, 2-[1-(3-chlorophenyl)-2-piperazin-1-ylethyl]decahydronaphthalen-2-ol dihydrochloride] had an inhibition at 1 µM of 24%. In turn, `OC1(C(CN2CCNCC2)c2cccc(Cl)c2)CCOCC1` (centres unmarked) [Example 77, 4-[1-(3-chlorophenyl)-2-piperazin-1-ylethyl]tetrahydro-2H-pyran-4-ol dihydrochloride] displayed an inhibition at 1 µM of 31%. With `CN1CCN(CC(c2cccc(Cl)c2)C2(O)CCOCC2)CC1` (centres unmarked) [Example 78, 4-[1-(3-chlorophenyl)-2-(4-methylpiperazin-1-yl)ethyl]tetrahydro-2H-pyran-4-ol dihydrochloride] the figure was 22%; with `CN1CCN(CC(c2cccc(Br)c2)C2(O)CCC(C(C)(C)C)CC2)CC1` (centres unmarked) [Example 79, 1-[1-(3-bromophenyl)-2-(4-methylpiperazin-1-yl)ethyl]4-tert-butylcyclohexanol dihydrochloride], 20%; with `CCCC(O)(CCC)C(CN1CCNCC1)c1cccc(Br)c1` (centres unmarked) [Example 81, 4-[1-(3-bromophenyl)-2-piperazin-1-ylethyl]heptan-4-ol dihydrochloride], 18%. Under `CCCC(O)(CCC)C(CN1CCN(C)CC1)c1cccc(Br)c1` (centres unmarked) [Example 82, 4-[1-(3-bromophenyl)-2-(4-methylpiperazin-1-yl)ethyl]heptan-4-ol dihydrochloride] stands 19%. Under `COc1ccc(C(CN2CCNCC2)C2(O)CCC(C(C)(C)C)CC2)cc1Br` (centres unmarked) [Example 84, 1-[1-(3-bromo-4-methoxyphenyl)-2-piperazin-1-ylethyl]4-tert-butylcyclohexanol dihydrochloride] stands 18%; under `CN1CCN(CC(c2cccc(Cl)c2)C(O)(C2CC2)C2CC2)CC1` (centres unmarked) [Example 86, 2-(3-chlorophenyl)-1,1-dicyclopropyl-3-(4-methylpiperazin-1-yl)propan-1-ol dihydrochloride], 16%; under `CN1CCN(CC(c2cccc(Br)c2)C2(O)CC(C)(C)CC(C)(C)C2)CC1` (centres unmarked) [Example 88, 1-[1-(3-bromophenyl)-2-(4-methylpiperazin-1-yl)ethyl]-3,3,5,5-tetramethylcyclohexanol dihydrochloride], 16%. As to `CC(C)(C)C1CCC(O)(C(CN2CCNCC2)c2cccc(Cl)c2)CC1` (centres unmarked) [Example 93, 4-tert-butyl-1-[1-(3-chlorophenyl)-2-piperazin-1-ylethyl]cyclohexanol dihydrochloride], the inhibition at 1 µM was determined as 12%. With `Clc1cccc(C(CN2CCNCC2)C2CCCC2)c1` (centres unmarked) [Example 226, 1-[2-(3-chlorophenyl)-2-cyclopentylethyl]piperazine dihydrochloride], at 1 µM the inhibition was 53%. Under `CN1CCN(CC(c2cccc(Cl)c2)C2CCCC2)CC1` (centres unmarked) [Example 227, 1-[2-(3-chlorophenyl)-2-cyclopentylethyl]-4-methylpiperazine dihydrochloride] stands 48.2%; under `Clc1cccc(C(CN2CCNCC2)C2CCCCC2)c1` (centres unmarked) [Example 230, 1-[2-(3-chlorophenyl)-2-cyclohexylethyl]piperazine dihydrochloride], 88.3%; under `CN1CCN(CC(c2cccc(Cl)c2)C2CCCCC2)CC1` (centres unmarked) [Example 231, 1-[2-(3-chlorophenyl)-2-cyclohexylethyl]-4-methylpiperazine dihydrochloride], 91.2%. Compound `Clc1cccc(C(CN2CCNCC2)C2CCCCCC2)c1` (centres unmarked) [Example 234, 1-[2-(3-chlorophenyl)-2-cycloheptylethyl]piperazine dihydrochloride] registered an inhibition at 1 µM of 67.7%.

The compound `CN1CCN(CC(c2cccc(Cl)c2)C2CCCCCC2)CC1` (centres unmarked) [Example 235, 1-[2-(3-chlorophenyl)-2-cycloheptylethyl]-4-methylpiperazine dihydrochloride] registered an inhibition at 1 µM of 80.5%. With `OC1CCCCC1C(CN1CCNCC1)c1cccc(Cl)c1` (centres unmarked) [Example 238, 2-[1-(3-chlorophenyl)-2-piperazin-1-ylethyl]cyclohexanol dihydrochloride] the figure was 72.9%; with `CC(C)(O)C(CN1CCNCC1)c1cccc(Cl)c1` (centres unmarked) [Example 275, 3-(3-chlorophenyl)-2-methyl-4-piperazin-1-ylbutan-2-ol dihydrochloride], 31%; with `CN1CCN(CC(c2cccc(Cl)c2)C(C)(C)O)CC1` (centres unmarked) [Example 276, 3-(3-chlorophenyl)-2-methyl-4-(4-methylpiperazin-1-yl)butan-2-ol dihydrochloride], 4%. With `CC1(C)CC(C)(C)CC(O)(C(CN2CCNCC2)c2cccc(Cl)c2)C1` (centres unmarked) [Example 277, 1-[1-(3-chlorophenyl)-2-piperazin-1-ylethyl]-3,3,5,5-tetramethylcyclohexanol dihydrochloride] the figure was 17%.
